Data set [1] has as its system rats fed with methionine-choline-deficient diet (NASH-like lesion in the liver). Format: in vivo. Particulars: MCD diet 20 weeks, compared to the control group; for plasma AST / plasma ALT: oral once a day; for plasma AST: EPA-E 1000 mg/kg, acetylsalicylic acid 20 mg/kg; for plasma ALT: EPA-E 1000, metformin hydrochloride 40, acetylsalicylic acid 20, simvastatin 5, valsartan 20 mg/kg. The method, then:
Pharmacological action of EPA-E and/or metformin hydrochloride, acetylsalicylic acid, simvastatin, or valsartan on liver disorder and fibrosis is confirmed by using rats that have been fed with methionine-choline-deficient diet (hereinafter referred to as “MCD diet”) known to develop a NASH-like lesion in the liver.
7 week old male Wister rats are allowed to freely take normal diet (F-1, Funabashi Farm) or MCD diet (Dyets, Inc.) for 20 weeks under 12 hour light-dark cycles at 23° C. […] The administration is conducted orally once a day. The normal group and the control group are orally administered with 5% aqueous solution of gum arabic once a day. After 20 weeks, blood is collected for biochemical tests of the plasma, and pathological tests of the liver are also conducted.

Data set [2] deals with db/db mouse fed with MCD diet (NASH-like lesion in the liver). Nature of the data set: Effectiveness in methionine-choline deficient diet diabetes model mouse. Format: in vivo. Particulars: MCD diet 2 weeks, compared to the control group; for plasma ALT / plasma FFA amount: oral once a day, EPA-E 1000 mg/kg, metformin hydrochloride 80 mg/kg. The method, then: Pharmacological action of EPA-E and/or metformin hydrochloride or olmesartan medoxomil for liver disorder and fibrosis is confirmed by using diabetes model rats that have been fed with MCD diet known to induce a NASH-like lesion in the liver.
7 week old male db/db mouse (Charles River Japan) is allowed to freely take normal diet (F-1, Funabashi Farm) or MCD diet (Dyets, Inc.) for 2 weeks under 12 hour light-dark cycles at 23° C. […] The administration is conducted orally once a day. The normal group and the control group are orally administered with 5% aqueous solution of gum arabic once a day. After 2 weeks, HOMA-IR is measured and blood is collected for biochemical test of the plasma.

Data set [3] deals with SD rat fed with high-fat high-sucrose diet. Nature of the data set: Effectiveness in high fat diet-fed rat. Format: in vivo. The following applies: HF diet 4 weeks. The method, then:
4 week old male SD rat is allowed to freely take normal diet (F-1, Funabashi Farm) or high-fat high-sucrose diet (TD88137, Harlan Teklad, hereinafter referred to as “HF diet”) for 4 weeks under 12 hour light-dark cycles at 23° C. […] The administration is conducted orally once a day. The normal group and the control group are orally administered with 5% aqueous solution of gum arabic once a day. After 4 weeks, blood is collected for determining neutrophil count and conduct biochemical tests of the plasma.

Data set [4] has as its system NASH patients. Nature of the data set: Administration to patients with the definitive diagnosis of NASH for one year. Format: in vivo, human. The method, then: Patients with the definitive diagnosis of NASH are divided into 8 groups (each group consisting of 15 patients). EPA-E group is administered with Epadel S (Registered Trademark) 900 (containing 900 mg of EPA-E) twice a day. […] Administration of the Melbin (Registered Trademark) tablet is started from once a day, the dose is adequately adjusted depending on the conditions of the patient, and after 5 weeks from the start of the administration, the dose may be increased to twice a day, and after 9 weeks from the start of the administration, the dose may be increased to 3 times a day. The dose is adequately adjusted depending on the conditions of the patient. […] Administration of the Bayaspirin (Registered Trademark) tablet is started from twice a day at 10 tablet in total, and after 5 weeks from the start of the administration, the dose is reduced to once a day at 1 tablet in total. The dose is adequately adjusted depending on the conditions of the patient. […] Candesartan group is administered with Blopress (Registered Trademark) tablet 2 (containing 2 mg of candesartan cilexetil), and candesartan combination group is administered with Blopress (Registered Trademark) tablet 2 and Epadel S (Registered Trademark) 900 twice a day. Administration of the Mevalotin (Registered Trademark) tablet 5 and Blopress (Registered Trademark) tablet 2 is started from 1 tablet once a day, and after 5 weeks from the start of the administration, the dose is increased to twice a day at 2 tablets in total, and after 9 weeks from the start of the administration, the dose is further increased to twice a day at 4 tablets in total. The dose is adequately adjusted depending on the conditions of the patient. Criteria, monitoring, histological tests, statistical analysis of the patients are conducted according to the methods described in Am. J. Gastroenterol. 2001; 96: 2711-2717. Measurement of blood neutrophil count and HOMA-IR, blood biochemical tests such as ALT and AST are occasionally conducted during the administration period of one year, and liver biopsy is conducted after completing the administration for histological evaluation.

In data set [5] the test system is NASH patient. Particulars: cited from earlier work.
Where [6] appears, read: EPA-E 1000 mg/kg oral once a day.
Where [7] appears, read: oral once a day, compared to the control group, EPA-E 1000 mg/kg, atorvastatin calcium hydrate 10 mg/kg.
The mark [8] stands for this setting: administration period of one year, EPA-E group (Epadel S 900 twice a day) compared to the measurements before the treatment.
The mark [9] stands for this setting: one year, Epadel S 900 (900 mg EPA-E) twice a day, compared to the measurements before the treatment.
The mark [10] stands for this setting: NASH patient also suffering from hypertension, oral 50 mg/day for 48 weeks, Non-Patent Literature 9.
Setting [11] is: NASH patient, oral 1500 mg/day for 4 months, Non-Patent Literature 4.

The values that follow come from patent US20110082119A1, “PROPHYLACTIC/AMELIORATING OR THERAPEUTIC AGENT FOR NON-ALCOHOLIC STEATOHEPATITIS” (priority 2008, published 2011).

Counter-ions that a name gives are not always drawn.

With `CC/C=C\C/C=C\C/C=C\C/C=C\C/C=C\CCCC(=O)OCC` [EPA-E, ethyl icosapentate], in data set [1] (setting [6]), the liver hydroxyproline content result is “suppressed increase”, the “plasma TIMP-1 content” value is on record as “suppressed increase”, the plasma albumin result is “suppressed increase” and the plasma choline esterase result is “suppressed increase”. Also, in data set [1] (setting [6]), the plasma hyaluronic acid entry was “suppressed increase”, the plasma total bilirubin entry is listed as “suppressed increase”, the plasma total protein entry is reported as “suppressed increase” and the “plasma type Iv collagen” value is on record as “suppressed increase”. Besides, in data set [1], the “plasma AST” value was “suppressed increase” and the “plasma ALT” value is given as “suppressed increase”. Moreover, the “fibrosis area of liver” value in data set [1] (Masson's trichrome stain, EPA-E 1000 mg/kg oral once a day) is recorded as “suppressed increase”. Moreover, in data set [2] (setting [6]), the TNFα result was “suppressed increase”, the “plasma AST” value was “suppressed increase”, the “plasma TIMP-1” value is “suppressed increase” and the plasma adiponectin amount entry is recorded as “suppressed decrease”. In addition, in data set [2] (setting [6]), the plasma hyaluronic acid entry was “suppressed increase” and the “plasma type IV collagen” value was “suppressed increase”. Further, in data set [2], the “plasma ALT” value is reported as “suppressed increase” and the “plasma FFA amount” value was “suppressed increase”. Besides, in data set [3] (setting [7]), the IL-6 result is listed as “suppressed increase”, the TNFα entry is reported as “suppressed increase”, the ferritin entry is “suppressed increase” and the “high sensitivity CPR” value is “suppressed increase”. For the same molecule, in data set [3] (setting [7]), the neutrophil count result was “suppressed increase”, the “plasma ALT” value is “suppressed increase”, the “plasma AST” value is listed as “suppressed increase” and the thioredoxin result was “suppressed increase”. In addition, the “type IV collagen” value in data set [3] (setting [7]) is on record as “suppressed increase”. In data set [4] (setting [8]), the AST entry is reported as “decrease”, the HOMA-IR entry is “improved”, the IL-6 result is “decrease” and the TNFα result is “decrease”. In data set [4] (setting [8]), the adiponectin result is given as “increases”, the ferritin result is “decrease”, the fibrosis marker result is “decrease” and the “high sensitivity CPR” value is reported as “decrease”. Further, the thioredoxin result in data set [4] (setting [8]) is “decrease”. Also, in data set [4] (liver biopsy after one year, EPA-E group compared to the condition before the administration), the “pathological test image of the liver tissue, overall rating of fat accumulation grade, inflammation grade and fibrosis stage by Brunt method” value was “improves”. In addition, in data set [4] (setting [9]), the AZT result is reported as “decrease” and the blood neutrophil count entry is “decrease”. The “NASH (AST or ALT enzyme, inflammatory cytokine or oxidative stress marker, liver biopsy)” value in data set [5] (2700 mg/day of high purity EPA-E for 12 months, Tanaka et al., Non-Patent Literature 3) is reported as “amelioration of NASH was demonstrated”.

For `CC(=O)Oc1ccccc1C(=O)O` [acetylsalicylic acid], the “effects on plasma and liver parameters like those of the EPA-E group” value in data set [1] (acetylsalicylic acid 20 mg/kg oral once a day) is recorded as “does not exhibit effects like those of the EPA-E group”. For the same molecule, in data set [1], the “plasma AST” value is “exacerbated” and the “plasma ALT” value was “exacerbated”. The “improvement of the parameters over the control group” value in data set [3] (acetylsalicylic acid 10 mg/kg oral once a day) is given as “does not exhibit significant improvement”.

With `CC(C)c1c(C(=O)Nc2ccccc2)c(-c2ccccc2)c(-c2ccc(F)cc2)n1CC[C@@H](O)C[C@@H](O)CC(=O)O` [atorvastatin, atorvastatin calcium hydrate], in data set [3] (setting [7]), the IL-6 entry was “suppressed increase”, the TNFα entry is listed as “suppressed increase”, the ferritin entry is recorded as “suppressed increase” and the “high sensitivity CPR” value was “suppressed increase”. In data set [3] (setting [7]), the neutrophil count result was “suppressed increase”, the thioredoxin result is reported as “suppressed increase” and the “type IV collagen” value was “suppressed increase”.

As to `CCCCc1nc(Cl)c(CO)n1Cc1ccc(-c2ccccc2-c2nn[nH]n2)cc1` [losartan], in data set [5] (setting [10]), the ALT result was “improvement”, the ferritin entry is given as “improvement” and the “type IV collagen” value was “improvement”.

Consider `CN(C)C(=N)N=C(N)N` [metformin, metformin hydrochloride], for which the “plasma ALT” value in data set [1] was “suppression of the increase”. Besides, in data set [2] (metformin hydrochloride 80 mg/kg oral once a day), the HOMA-IR entry is listed as “improved”. Besides, in data set [2], the “plasma ALT” value is reported as “suppressed increase” and the “plasma FFA amount” value is “suppressed increase”. Moreover, in data set [5] (setting [11]), the lactic acid level entry is listed as “significant increase” and the “serum alanine aminotransferase (ALT) level” value is given as “significant decrease”.

As for `CCCCC(=O)N(Cc1ccc(-c2ccccc2-c2nnn[nH]2)cc1)[C@H](C(=O)O)C(C)C` [valsartan], the “plasma ALT” value in data set [1] was “suppression of the increase”.
